The source of these data is patent US20080003438A1, “Heterocyclic siloxanes for use in biocidal coatings and materials” (Auburn University, priority 2002, published 2008).

The test system of data set [1] is Escherichia coli (ATCC 2666). Put plainly: Challenge of treated cotton swatches, modified AATCC Method 100. It counts as cell-based. The note with it: contact time interval 60-120 minutes. Here is the method:
(§1) Treated cotton swatches were challenged with S. aureus (ATCC 6538) and Escherichia coli (ATCC 2666) at a concentration of between 10^8 and 10^9 CFU/mL in pH 7 phosphate buffer solution using a modified version of AATCC Method 100. The swatches were quenched with 0.02 N sodium thiosulfate solution at contact times of 10, 30, 60, and 120 min. Serial dilutions of the solutions contacting the swatches were plated on nutrient agar, incubated for 48 hours at 37° C., and plate counts were made to determine the presence of viable bacteria. […] The control sample (cotton soaked in 10% bleach, rinsed, and dried) gave only a 0.4 log reduction at 30 minutes. […] The control sample (cotton soaked in 10% bleach, rinsed, and dried) gave a 0 log reduction at 120 minutes.

Data set [2] has as its system S. aureus (ATCC 6538). The data set is described as above. It counts as cell-based. The following applies: coated chlorinated cotton swatches, contact time interval 10-30 minutes, pH 7 phosphate buffer. Here is the method:
as §1

Data set [3] in a line: Chlorine loading of coated, chlorinated surfaces by iodometric/thiosulfate titration. It counts as physicochemical. The note with it: for average chlorine loading on the swatches: 10% CLOROX 30 min; for chlorine content: chlorinated in household washing machine; for chlorine bound to hard surface: 10% CLOROX. Here is the method:
Swatches of Style 400 Bleached 100% Cotton Print Cloth (Testfabrics, Inc.) were treated with 3-triethoxysilylpropyl-5,5-dimethylhydantoin, prepared as described in Example 1, in the following manner. A treatment bath was prepared containing 5.0 g of 3-triethoxysilylpropyl-5,5-dimethylhydantoin, 3.0 g of potassium thiocyanate, 50 mL of ethanol, and 50 mL of water. After 1 hour of equilibration of the bath mixture, the cotton swatches were soaked in the bath for 10 min. After partially drying in air at ambient temperature, the swatches were cured for 1 hour at 95° C. The swatches were then soaked in a 0.5% liquid detergent solution for 15 min, rinsed with tap water, and allowed to dry in air at ambient temperature. […] The swatches were stored in a vacuum desiccator until use.
The siloxane polymer described above was coated onto 100% cotton fabric. This was accomplished by soaking swatches of the material for about 2 minutes at ambient temperature in a bath containing 5 g of the polysiloxane, 70 mL of ethanol, and 40 mL of water. The swatches were cured at 130° C. in air for 20 minutes, then soaked in 1.5% liquid detergent for 15 minutes at ambient temperature, and then rinsed thoroughly with water. […] An iodometric/thiosulfate titration indicated a chlorine loading on the cotton material of about 0.42%.
Finally, a wash test was performed on swatches of cotton containing the monomer 3-triethoxysilylpropyl-5,5-dimethylhydantoin coating and the polysiloxane coating, each chlorinated and unchlorinated, for comparison purposes. Two treatment baths were prepared, one containing an 8% solution of 3-triethoxysilylpropyl-5,5-dimethylhydantoin in a 50% solution of ethanol in water, the other containing an 8% solution of siloxane polymer prepared as described above in a 66.7% solution of ethanol in water. Identical cotton swatches were soaked in the two baths for 2.5 minutes at ambient temperature, cured in air at 130° C. for 20 minutes, soaked in 1.5% liquid detergent at ambient temperature for 15 minutes, rinsed thoroughly with water, and dried in air at 50° C. for 30 minutes. Then one-half of the swatches of each type were chlorinated by soaking them in 5% CLOROX at ambient temperature for 45 minutes. These chlorinated samples were rinsed thoroughly with water and dried in air at 50° C. for 30 minutes to remove all occluded free chlorine. Iodometric/thiosulfate titrations were performed on representative samples to determine initial chlorine loadings. The average chlorine loading for the silane monomer-coated samples was 0.61%; for the siloxane polymer-coated samples, the average chlorine loading was 0.40%. Then all types of coated swatches were subjected to laundry washing cycles using AATCC Test Method 61 (Test 2A Procedure). Samples were evaluated after 5, 10, and 50 washing cycles for retention of the coatings. Those samples not chlorinated before washing were chlorinated by the procedure described above in order to assess how much chlorine could be loaded after variable numbers of washing cycles. Those chlorinated before washing were divided into two groups with half being assessed for chlorine loading without rechlorination, the other half being rechlorinated and then assessed for chlorine loading. Three observations are clearly evident from the data in Table 3. First, both the silane and the siloxane coatings are partially lost upon successive washings. Second, prechlorination reduces the rate of loss, probably due to increasing the hydrophobicity of the surface, thus reducing the rate of hydrolysis loss of the siloxane coatings. Third, the siloxane coating, which is not chlorinated to as high a level as the silane one upon initial chlorination, is lost at a slower rate than is the silane coating. For all of the coatings, at least partial biocidal efficacy would be regenerated upon rechlorination after 50 washing cycles. […]

A short description of data set [4]: Stability test during dry storage of coated cotton samples. Type of data set: physicochemical. Here is the method:
A stability test during dry storage was also conducted on cotton samples coated with 3-triethoxysilylpropyl-5,5-dimethylhydantoin. One half of the samples were coated in a bath containing 8% of the 3-triethoxysilylpropyl-5,5-dimethylhydantoin in 50% ethanol in water solution. The other half were treated in the same manner except that KSCN was added to the treatment bath as described above. The chlorination conditions and analytical method of measuring chlorine loadings were the same as discussed above. The samples were stored in plastic bags at ambient temperature; the bags were not air-tight. The average chlorine loading for the samples treated in the presence of KSCN declined from 0.776% to 0.680% over a period of 50 days. For the samples not treated in the presence of KSCN, the decline was from 0.620% to 0.540% over the same 50 day period. It can be concluded that the coated cotton samples were fairly stable to loss of chlorine in dry storage.

The test system of data set [5] is Candida albicans (ATCC # 102301). Put plainly: Anti-yeast activity of halogen charged coated surfaces. It counts as cell-based. Here is the method:
Soft and hard surfaces were treated by exposure to solutions of 3-triethoxysilylpropyl-5,5-dimethylhydantoin prepared as described in Example 1. Challenge inocula for determination of activity directed against yeasts consisted of suspensions of Candida albicans (ATCC # 102301) harvested from PDA plates. Procedures for preparation of halogen charged surfaces, plates, and the exposure of test articles were as described in Example 11. Recovery of viable Candida was accomplished by the plate dilution method on PDA.

In data set [6] the test system is spores of Bacillus subtilis. Put plainly: Anti Bacillus spore activity of chlorine charged coated surfaces. Type of data set: cell-based. The following applies: 96 hours. Here is the method: Soft and hard surfaces were treated by exposure to solutions of 3-triethoxysilylpropyl-5,5-dimethylhydantoin, prepared as described in Example 1, and charged with chlorine as described in Example 11. Challenge inocula for the detection of activity versus bacterial spores were prepared from suspensions of spores of Bacillus subtilis. Recovery of viable organisms from challenged surfaces was done on TSA plates, and enumeration was accomplished by the plate dilution method.

Structures are written as SMILES.

As to `CCO[Si](CCCN1C(=O)NC(C)(C)C1=O)(OCC)OCC` [3-triethoxysilylpropyl-5,5-dimethylhydantoin], the “log reduction of E. coli” value in data set [1] is listed as over 5.9 logs. The “log reduction of S. aureus” value in data set [2] is reported as over 5.7 logs. Further, the “chlorine on hard surface” value was found to be 4.1 μg per cm^2 in data set [3] (PVC (Example 12)) and 6.9 μg per cm^2 in data set [3] (marble tiles (Example 12)). Besides, the “average initial chlorine loading before washing” value in data set [3] (cotton, 8% treatment bath, cured 130° C. 20 min, 5% CLOROX 45 minutes) is given as 0.61%. The “average chlorine loading on the swatches” value is listed as 0.61±0.14% in data set [3] (cotton, KSCN in treatment bath) and 0.49±0.07% in data set [3] (cotton, without KSCN). Further, the chlorine content result in data set [3] (cotton) is “approximately 4000 ppm Cl^+”; in data set [3] (sponge slabs), 1000-2000 ppm. In addition, the “chlorine bound to hard surface” value in data set [3] (marble tile) is reported as 6.9 μg Cl^+ per square cm; in data set [3] (porcelain tile), 3.3 μg Cl^+ per square cm. In addition, the “chlorine concentration on soft surface” value in data set [3] (rayon fabrics (Example 12)) is given as 4000 ppm; in data set [3] (synthetic fibers (Example 12)), “approximately 800 ppm”. Also, the average chlorine loading in data set [4] (cotton not treated in presence of KSCN, after 50 days in plastic bags at ambient temperature) is reported as 0.540%; in data set [4] (cotton not treated in presence of KSCN, start of dry storage) it was 0.620%; in data set [4] (cotton treated in presence of KSCN, after 50 days in plastic bags at ambient temperature), 0.680%; in data set [4] (cotton treated in presence of KSCN, start of dry storage), 0.776%. Moreover, the “reduction in viable yeasts” value in data set [5] (cotton surfaces, two hours of contact) was 5 logs; in data set [5] (hard surfaces, 6 hours of contact), “up to 4 logs”; in data set [5] (polyester, 24 hours) it was 4 logs. In addition, the “reduction in viable B. subtilis spore counts” value in data set [6] (cellulose sponge) is given as over 5 logs; in data set [6] (cotton and polyester), over 2 logs; in data set [6] (hard surfaces (marble, vinyl, porcelain)) it was “up to 4 logs”.
